{
  "source": "patent US10617735B2",
  "about": "“Methods and compositions for preserving retinal ganglion cells” (Massachusetts Eye and Ear Infirmary, priority 2010, dated 2020)",
  "key": {"[1]": {"system": "caspase-8, caspase-9 and caspase-3", "assay": "Caspase-8, caspase-9 and caspase-3 activities in the retina after ON injury (commercial kit)", "assay_type": "in vivo, mouse", "conditions": "one day after ON injury, intravitreal Z-VAD", "text": "(§1) Two mouse models of RGC death were utilized: optic nerve (ON) injury and N-methyl-D-aspartate (NMDA) retinal excitotoxicity. ON injury leads to RGC death as a result of primary damage to the axons, with its ensuing disruption of retrograde axonal transport (Libby et al., (2005) PLOS GENET 1:17-26) and is used as an RGC death model. In the ON injury model, mice were anesthetized and subjected to severe crush injury at 1-2 mm distance from the eyeball for 15 seconds using cross-action forceps taking special care not to interfere with the blood supply (Levkovitch-Verbin, (2004) EYE 18:1066-1074). Injured mice were randomly divided into 4 groups for treatment: vehicle group (0.5% DMSO and 0.8% cyclodextrin in PBS, n=6), ZVAD group (300 n=6), Nec-1 group (4 mM, n=6), and ZVAD plus Nec-1 group (n=6). Soon after injury, each group received an intravitreal injection (2 μl) with the respective compounds. […]\nIn human glaucoma, RGC death has been attributed mainly to apoptosis (Kerrigan et al., (1997), Tatton et al., (2001)). […] The activities of caspase-8, caspase-9 and caspase-3 were measured using a commercially available kit according to the manufacturer's instructions (APT171/131/139; Millipore, Billerica, Mass.)."}, "[2]": {"system": "retinal ganglion cells (RGCs)", "assay": "TUNEL staining after ON injury", "assay_type": "in vivo, mouse", "text": "Two mouse models of RGC death were utilized: optic nerve (ON) injury and N-methyl-D-aspartate (NMDA) retinal excitotoxicity. ON injury leads to RGC death as a result of primary damage to the axons, with its ensuing disruption of retrograde axonal transport (Libby et al., (2005) PLOS GENET 1:17-26) and is used as an RGC death model. In the ON injury model, mice were anesthetized and subjected to severe crush injury at 1-2 mm distance from the eyeball for 15 seconds using cross-action forceps taking special care not to interfere with the blood supply (Levkovitch-Verbin, (2004) EYE 18:1066-1074). […] Soon after injury, each group received an intravitreal injection (2 μl) with the respective compounds. In the NMDA retinal excitotoxicity model, NMDA (2 μl of a 0.1M stock; Sigma-Aldrich) was injected intravitreously in combination with ZVAD, Nec-1, or ZVAD plus Nec-1 and mice were separated into the aforementioned 4 groups. The dose of these compounds was selected based on previous studies (Karl et al., (2008) PROC NATL ACAD SCI USA 105:19508-19513; Knoferle et al., (2010) PROC NATL ACAD SCI USA 107:6064-6069; Nakazawa et al., (2006) J NEUROSCI 26:12633-12641; Rosenbaum et al., (2010) J NEUROSCI RES 88:1569-1576).\nIntravitreal injections were performed as follows. Briefly, the tip of a 33 gauge needle (Hamilton, Reno, Nev.) was carefully inserted through the sclera into the intravitreal space to reduce intraocular pressure. Then, the needle was extracted, loaded with compounds and tangentially reinserted through the sclera into the intravitreal space, inducing a self-sealing wound tunnel. After injection, the absence of choroidal bleeding was confirmed. At specified times after injury, mice were sacrificed with an overdose of sodium pentobarbital, and eyes were enucleated."}, "[3]": {"conditions": "studies on which the dose was selected; cited from earlier work"}, "Atg5, 7 and 12": {"system": "Atg5, 7 and 12", "assay": "Atg5, Atg7 and Atg12 expression after ON injury (quantitative RT-PCR)", "assay_type": "in vivo, mouse", "conditions": "one day after ON injury; compared with vehicle treatment", "procedure": "Total RNA extraction, cDNA synthesis and PCR amplification have been performed as previously reported (Kayama et al., (2010) OPHTHALMIC RES 43:79-91). A real-time PCR assay was performed with Prism 7700 Sequence Detection System (Applied Biosystems, Foster City, Calif.). The primers are shown below in Table 1.\nFor relative comparison of each gene, the Ct value of real-time PCR data was analyzed with the ΔΔCt method and normalized to an endogenous control ([…].\nTo investigate whether autophagy influences RGC death after ON injury, expression of several genes critical for autophagosome formation including Atg5, 7 and 12 was measured by quantitative RT-PCR. […] In contrast, administration of ZVAD plus Nec-1, or Rip3 deficiency suppressed expression of Atg5, 7 and 12 transcripts (FIGS. 9A-9C)."}, "[4]": {"system": "retinal ganglion cells (RGCs)", "assay": "NMDA retinal excitotoxicity model: Brn3b positive cells", "assay_type": "in vivo, mouse", "conditions": "NMDA injected intravitreously in combination with the compounds", "text": "as §1, with “compounds. In the NMDA retinal excitotoxicity model, NMDA (2 μl of a 0.1M stock; Sigma-Aldrich) was injected intravitreously in combination with ZVAD, Nec-1, or ZVAD plus Nec-1 and mice were separated into the aforementioned 4 groups.” for “compounds.”"}, "[5]": {"system": "retinal ganglion cells (RGCs)", "assay": "NMDA retinal excitotoxicity model: TUNEL staining", "assay_type": "in vivo, mouse", "conditions": "NMDA injected intravitreously in combination with the compounds", "text": "as §1, with “compounds. In the NMDA retinal excitotoxicity model, NMDA (2 μl of a 0.1M stock; Sigma-Aldrich) was injected intravitreously in combination with ZVAD, Nec-1, or ZVAD plus Nec-1 and mice were separated into the aforementioned 4 groups.” for “compounds.”"}, "[6]": {"system": "retinal ganglion cells (RGCs)", "assay": "Propidium iodide (PI) staining of necrotic cells in GCL after ON injury", "assay_type": "in vivo, mouse", "conditions": "one day after ON injury, wild-type mice", "text": "To investigate further the underlying mechanism of why Z-VAD fails to prevent RGC death after ON injury, propidium iodide (PI) was used to detect necrotic cells in GCL (Unal Cevik et al., (2010)). At one day after ON injury, Z-VAD administration increased the number of PI positive cells compared with vehicle (FIGS. 4A and 4B)."}},
  "note": "Where a SMILES comes first, the peptide text is derived from it. The star is where a group is joined. Cbz = O=C(OCc1ccccc1)*; CH2F = FC*",
  "data": [
    {"smiles": "COC(=O)CC(NC(=O)C(C)NC(=O)C(NC(=O)OCc1ccccc1)C(C)C)C(=O)CF", "note": "(stereo not drawn) [Z-VAD, Benzyloxycarbonyl-Val-Ala-Asp(OMe)-fluoromethylketone] (Cbz-Val-Ala-Asp(OMe)-CH2F; configuration not given here)", "values": [
      {"measurement": "decrease of the activities of the caspases", "setting": "[1]", "value": 70, "unit": "%"},
      {"measurement": "TUNEL positive cells", "setting": "[2]; RIP3−/− mice, one day after ON injury", "value": "marked decrease in TUNEL positive cells"},
      {"measurement": "TUNEL positive cells (apoptotic RGCs)", "setting": "[2]; wild-type mice, day one after ON injury, intravitreal Z-VAD (300 uM) and/or Nec-1 (400 uM)", "value": "failed to rescue RGCs"},
      {"measurement": "half-life inside the eye", "setting": "[3]", "value": "around 6 hours"},
      {"measurement": "Atg12 expression", "setting": "Atg5, 7 and 12", "value": "further increased"},
      {"measurement": "reduction of Brn3b positive cells", "setting": "[4]", "value": "prevented the reduction of Brn3b positive cells"},
      {"measurement": "number of TUNEL positive cells", "setting": "[5]", "value": "decreased the number of TUNEL positive cells"},
      {"measurement": "number of PI positive cells", "setting": "[6]", "value": "increased"}
    ]}
  ]
}
